Measured values from BindingDB's records for doi:10.1007/s00213-006-0490-4 (Purdue University, 2006).

Columns and labels:
[1] = biological target: Muscarinic acetylcholine receptor M5 (Homo sapiens, UniProt P08912)
Histamine H3 receptor = Histamine H3 receptor (Cavia porcellus, UniProt Q9JI35)
D(2) dopamine receptor = D(2) dopamine receptor (Homo sapiens, UniProt P14416)
[2] = biological target: 5-hydroxytryptamine receptor 6 (Homo sapiens, UniProt P50406)
[3] = biological target: 5-hydroxytryptamine receptor 2C (Rattus norvegicus, UniProt P08909)
[4] = biological target: 5-hydroxytryptamine receptor 2A (Homo sapiens, UniProt P28223)
Chain of 5-hydroxytryptamine receptor 2A (P28223 whole entry): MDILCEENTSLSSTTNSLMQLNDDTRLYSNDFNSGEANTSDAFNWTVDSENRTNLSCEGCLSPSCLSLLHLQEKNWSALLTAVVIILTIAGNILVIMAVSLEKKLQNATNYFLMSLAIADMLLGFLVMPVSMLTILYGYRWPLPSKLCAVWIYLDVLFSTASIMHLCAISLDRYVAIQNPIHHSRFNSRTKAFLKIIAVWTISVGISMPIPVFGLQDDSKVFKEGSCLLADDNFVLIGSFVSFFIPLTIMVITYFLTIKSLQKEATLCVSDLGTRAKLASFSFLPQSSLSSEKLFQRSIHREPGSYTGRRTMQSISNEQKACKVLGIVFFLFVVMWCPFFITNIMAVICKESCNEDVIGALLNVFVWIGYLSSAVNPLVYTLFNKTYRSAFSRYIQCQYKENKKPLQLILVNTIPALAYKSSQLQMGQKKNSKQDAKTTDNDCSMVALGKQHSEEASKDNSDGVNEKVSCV

[5] = biological target: Kappa-type opioid receptor (Homo sapiens, UniProt P41145)
Chain of Kappa-type opioid receptor (P41145 whole entry): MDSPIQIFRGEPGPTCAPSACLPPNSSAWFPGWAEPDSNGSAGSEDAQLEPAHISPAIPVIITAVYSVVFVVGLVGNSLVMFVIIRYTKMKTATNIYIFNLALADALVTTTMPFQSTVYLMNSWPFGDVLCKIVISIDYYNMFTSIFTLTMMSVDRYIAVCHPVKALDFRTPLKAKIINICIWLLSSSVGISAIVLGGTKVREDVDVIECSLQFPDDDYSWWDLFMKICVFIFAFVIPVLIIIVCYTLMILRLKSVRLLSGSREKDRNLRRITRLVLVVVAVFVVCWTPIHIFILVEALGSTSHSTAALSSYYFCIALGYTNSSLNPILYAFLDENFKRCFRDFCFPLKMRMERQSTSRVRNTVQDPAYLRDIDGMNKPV

[6] = biological target: Alpha-2C adrenergic receptor (Homo sapiens, UniProt P18825)
[7] = biological target: Delta-type opioid receptor (Homo sapiens, UniProt P41143)
Chain of Delta-type opioid receptor (P41143 whole entry): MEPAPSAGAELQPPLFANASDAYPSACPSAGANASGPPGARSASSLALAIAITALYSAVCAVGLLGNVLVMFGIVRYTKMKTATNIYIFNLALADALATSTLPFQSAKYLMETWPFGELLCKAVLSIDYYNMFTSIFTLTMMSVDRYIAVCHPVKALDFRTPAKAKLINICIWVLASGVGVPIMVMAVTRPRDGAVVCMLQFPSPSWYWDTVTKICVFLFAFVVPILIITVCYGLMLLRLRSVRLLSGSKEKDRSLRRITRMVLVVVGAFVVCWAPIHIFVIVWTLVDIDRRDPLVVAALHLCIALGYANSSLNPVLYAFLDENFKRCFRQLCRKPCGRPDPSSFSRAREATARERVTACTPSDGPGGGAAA

D(1A) dopamine receptor = D(1A) dopamine receptor (Homo sapiens, UniProt P21728)
Chain of D(1A) dopamine receptor (P21728 whole entry): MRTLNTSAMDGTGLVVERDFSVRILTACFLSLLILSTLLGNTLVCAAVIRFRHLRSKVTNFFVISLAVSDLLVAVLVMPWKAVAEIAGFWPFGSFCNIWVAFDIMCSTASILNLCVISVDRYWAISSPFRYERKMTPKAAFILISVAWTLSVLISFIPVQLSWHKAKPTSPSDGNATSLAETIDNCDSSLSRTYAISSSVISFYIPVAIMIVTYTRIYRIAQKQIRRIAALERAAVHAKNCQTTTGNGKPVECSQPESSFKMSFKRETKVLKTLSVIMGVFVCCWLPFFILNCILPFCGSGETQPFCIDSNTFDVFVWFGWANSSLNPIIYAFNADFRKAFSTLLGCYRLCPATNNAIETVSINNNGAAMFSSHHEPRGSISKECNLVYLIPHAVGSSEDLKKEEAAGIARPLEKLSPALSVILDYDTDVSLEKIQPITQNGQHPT

[8] = biological target: Alpha-2A adrenergic receptor (Homo sapiens, UniProt P08913)
Mu-type opioid receptor = Mu-type opioid receptor (Homo sapiens, UniProt P35372)
Chain of Mu-type opioid receptor (P35372 whole entry): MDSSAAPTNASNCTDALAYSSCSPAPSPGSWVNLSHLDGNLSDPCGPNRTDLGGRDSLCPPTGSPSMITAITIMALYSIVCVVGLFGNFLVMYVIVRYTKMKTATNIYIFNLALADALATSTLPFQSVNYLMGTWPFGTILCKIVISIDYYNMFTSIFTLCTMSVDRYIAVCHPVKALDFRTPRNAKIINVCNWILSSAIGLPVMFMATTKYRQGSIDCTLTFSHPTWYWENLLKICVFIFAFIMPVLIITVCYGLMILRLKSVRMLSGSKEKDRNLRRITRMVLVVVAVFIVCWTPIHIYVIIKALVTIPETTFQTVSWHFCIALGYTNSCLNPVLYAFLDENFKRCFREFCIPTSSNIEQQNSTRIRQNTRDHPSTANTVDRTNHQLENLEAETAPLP

[9] = biological target: Beta-2 adrenergic receptor (Rattus norvegicus, UniProt P10608)
Chain of Beta-2 adrenergic receptor (P10608 whole entry): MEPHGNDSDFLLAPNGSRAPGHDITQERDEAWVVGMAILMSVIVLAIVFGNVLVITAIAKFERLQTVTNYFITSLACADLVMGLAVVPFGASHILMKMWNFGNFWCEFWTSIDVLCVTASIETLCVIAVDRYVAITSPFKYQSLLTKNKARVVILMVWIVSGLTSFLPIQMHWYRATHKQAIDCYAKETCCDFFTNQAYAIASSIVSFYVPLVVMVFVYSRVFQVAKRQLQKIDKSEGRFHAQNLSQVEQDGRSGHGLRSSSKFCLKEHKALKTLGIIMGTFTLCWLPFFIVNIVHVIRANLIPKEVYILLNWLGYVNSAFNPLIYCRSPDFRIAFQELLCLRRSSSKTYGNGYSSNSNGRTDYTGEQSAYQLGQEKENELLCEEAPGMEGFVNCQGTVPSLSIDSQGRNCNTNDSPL

[10] = biological target: 5-hydroxytryptamine receptor 1E (Homo sapiens, UniProt P28566)
Chain of 5-hydroxytryptamine receptor 1E (P28566 whole entry): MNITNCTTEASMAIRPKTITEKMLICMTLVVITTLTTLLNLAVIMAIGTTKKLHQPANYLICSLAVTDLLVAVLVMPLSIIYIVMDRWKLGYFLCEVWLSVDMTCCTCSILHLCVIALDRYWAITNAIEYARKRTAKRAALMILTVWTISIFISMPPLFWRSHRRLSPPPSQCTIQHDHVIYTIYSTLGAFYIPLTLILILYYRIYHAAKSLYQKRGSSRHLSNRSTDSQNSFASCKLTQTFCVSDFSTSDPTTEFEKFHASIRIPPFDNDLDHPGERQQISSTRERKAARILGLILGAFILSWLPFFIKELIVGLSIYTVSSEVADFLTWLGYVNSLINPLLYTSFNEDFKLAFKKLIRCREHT

D(3) dopamine receptor = D(3) dopamine receptor (Rattus norvegicus, UniProt P19020)
D(1B) dopamine receptor = D(1B) dopamine receptor (Homo sapiens, UniProt P21918)
Chain of D(1B) dopamine receptor (P21918 whole entry): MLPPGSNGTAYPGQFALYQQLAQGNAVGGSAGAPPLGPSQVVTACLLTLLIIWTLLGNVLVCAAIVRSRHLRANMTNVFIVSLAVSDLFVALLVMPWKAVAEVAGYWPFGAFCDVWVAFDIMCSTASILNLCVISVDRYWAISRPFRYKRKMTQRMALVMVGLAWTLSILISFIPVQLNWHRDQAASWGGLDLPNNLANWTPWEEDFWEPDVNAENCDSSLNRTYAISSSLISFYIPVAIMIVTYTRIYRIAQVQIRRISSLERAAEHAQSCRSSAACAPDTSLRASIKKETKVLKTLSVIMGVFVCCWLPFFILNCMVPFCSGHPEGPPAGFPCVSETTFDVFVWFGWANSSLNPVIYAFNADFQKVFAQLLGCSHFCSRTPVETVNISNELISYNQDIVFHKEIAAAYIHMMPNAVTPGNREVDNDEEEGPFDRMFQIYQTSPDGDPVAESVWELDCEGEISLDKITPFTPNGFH

[11] = biological target: Gamma-aminobutyric acid receptor subunit alpha-1 (Rattus norvegicus, UniProt P62813)
[12] = biological target: Muscarinic acetylcholine receptor M2 (Homo sapiens, UniProt P08172)
Histamine H4 receptor = Histamine H4 receptor (Homo sapiens, UniProt Q9H3N8)
Histamine H2 receptor = Histamine H2 receptor (Homo sapiens, UniProt P25021)
[13] = biological target: 5-hydroxytryptamine receptor 5A (Homo sapiens, UniProt P47898)
[14] = biological target: Beta-1 adrenergic receptor (Rattus norvegicus, UniProt P18090)
Chain of Beta-1 adrenergic receptor (P18090 whole entry): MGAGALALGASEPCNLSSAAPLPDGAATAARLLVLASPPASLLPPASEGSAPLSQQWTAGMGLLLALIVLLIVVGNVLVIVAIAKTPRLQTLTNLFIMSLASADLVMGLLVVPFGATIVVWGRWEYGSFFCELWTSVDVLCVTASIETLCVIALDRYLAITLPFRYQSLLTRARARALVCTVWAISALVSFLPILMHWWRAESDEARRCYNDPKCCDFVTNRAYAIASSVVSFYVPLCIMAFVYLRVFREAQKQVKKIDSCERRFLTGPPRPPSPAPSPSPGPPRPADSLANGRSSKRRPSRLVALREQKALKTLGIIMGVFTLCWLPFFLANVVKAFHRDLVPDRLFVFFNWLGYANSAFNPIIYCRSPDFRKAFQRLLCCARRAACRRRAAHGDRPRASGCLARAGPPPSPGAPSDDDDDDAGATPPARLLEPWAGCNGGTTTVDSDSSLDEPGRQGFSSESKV

Histamine H1 receptor = Histamine H1 receptor (Homo sapiens, UniProt P35367)
Chain of Histamine H1 receptor (P35367 whole entry): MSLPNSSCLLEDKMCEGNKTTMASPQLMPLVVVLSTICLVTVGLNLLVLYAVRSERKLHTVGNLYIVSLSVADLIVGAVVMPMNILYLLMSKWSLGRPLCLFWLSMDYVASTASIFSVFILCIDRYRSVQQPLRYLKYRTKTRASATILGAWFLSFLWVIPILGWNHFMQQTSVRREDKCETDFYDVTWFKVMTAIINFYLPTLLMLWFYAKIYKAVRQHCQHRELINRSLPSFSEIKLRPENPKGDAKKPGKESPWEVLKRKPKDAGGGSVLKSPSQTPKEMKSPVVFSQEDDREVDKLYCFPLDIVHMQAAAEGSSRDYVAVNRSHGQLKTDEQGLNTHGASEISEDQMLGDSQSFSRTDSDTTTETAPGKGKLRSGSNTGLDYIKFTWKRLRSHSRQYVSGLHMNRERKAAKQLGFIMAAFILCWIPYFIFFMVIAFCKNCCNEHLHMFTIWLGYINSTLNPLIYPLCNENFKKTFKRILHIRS

[15] = biological target: Alpha-2B adrenergic receptor (Homo sapiens, UniProt P18089)

Chain of 5-hydroxytryptamine receptor 6 (P50406 whole entry): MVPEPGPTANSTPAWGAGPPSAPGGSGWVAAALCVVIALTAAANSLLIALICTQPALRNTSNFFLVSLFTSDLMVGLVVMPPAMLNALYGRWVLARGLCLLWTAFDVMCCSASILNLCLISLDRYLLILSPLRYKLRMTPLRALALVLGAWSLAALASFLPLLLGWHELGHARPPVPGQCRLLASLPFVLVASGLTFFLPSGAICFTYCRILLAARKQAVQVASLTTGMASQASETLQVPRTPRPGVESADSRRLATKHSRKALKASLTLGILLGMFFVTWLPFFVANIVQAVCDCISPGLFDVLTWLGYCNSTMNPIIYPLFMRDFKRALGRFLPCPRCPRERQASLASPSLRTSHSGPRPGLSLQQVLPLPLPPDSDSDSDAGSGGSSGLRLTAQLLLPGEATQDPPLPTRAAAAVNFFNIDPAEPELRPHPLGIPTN

Ki [1]: > 10 µM | Ki (Histamine H3 receptor): > 10 µM | Ki (D(2) dopamine receptor): 0.94 µM | Ki [2]: > 10 µM | Ki [3]: > 10 µM | Ki [4]: 6.26 µM | Ki [5]: 0.412 µM | Ki [6]: 2.57 µM | Ki [7]: > 10 µM | Ki (D(1A) dopamine receptor): > 10 µM | Ki [8]: > 10 µM | Ki (Mu-type opioid receptor): > 10 µM | Ki [9]: > 10 µM | Ki [10]: > 10 µM | Ki (D(3) dopamine receptor): 0.37 µM | Ki (D(1B) dopamine receptor): > 10 µM | Ki [11]: > 10 µM | Ki [12]: > 10 µM | Ki (Histamine H4 receptor): > 10 µM | Ki (Histamine H2 receptor): > 10 µM | Ki [13]: > 10 µM | Ki [14]: > 10 µM | Ki (Histamine H1 receptor): > 10 µM | Ki [15]: > 10 µM
Structure (SMILES): COc1ccccc1N1CCN(CCN(C(=O)C2CCCCC2)c2ccccn2)CC1
